Measurements from ChEMBL document CHEMBL4130350, “Discovery, mechanism and metabolism studies of 2,3-difluorophenyl-linker-containing PARP1 inhibitors with enhanced in vivo efficacy for cancer therapy” (Eur J Med Chem, 2017).
In brackets after ≈: the same amount, converted by molar mass. Activity calls are given as the source filed them. The calls are words filed in the database; no cut-off is given here.

Key:
[1] = Drug level in mouse liver microsomes treated with 2-(4-(2,3-Difluoro-5-((4-oxo-3,4-dihydrophthalazin-1-yl)methyl)benzoyl)pipe-razin-1-yl)nicotinonitrile at 2 uM up to 60 mins by LC-MS/MS analysis; assay type: ADME, microsome; conditions: 1 h
[2] = Retention time in mouse liver microsomes at 2 uM up to 60 mins in presence of NADPH by LC-MS/MS analysis; assay type: ADME, microsome; conditions: 1 h
[3] = Half life in Sprague-Dawley rat at 1 mg/kg, iv by LC-MS/MS analysis; assay type: ADME, organism-based; conditions: in vivo
[4] = AUC in Sprague-Dawley rat at 2 mg/kg, po by LC-MS/MS analysis; assay type: ADME, organism-based; conditions: in vivo
MDA-MB-436 [5] = assay: Antiproliferative activity against human MDA-MB-436 cells after 7 days by CCK8 or SRB assay; assay type: functional, cell-based; conditions: MDA-MB-436, 168 h
CAPAN-1 [6] = assay: Antitumor activity against human Capan1 cells harboring BRCA2 mutant xenografted in nude BALB/cA mouse assessed as tumor growth inhibition at 0.5 mg/kg, po administered once daily for 21 consecutive days measured twice per week; assay type: functional; conditions: CAPAN-1, po, read-out: TGI
[7] = Elimination half-life in mouse liver microsomes at 2 uM up to 60 mins by LC-MS/MS analysis; assay type: ADME, microsome; conditions: read-out: beta t1/2
[8] = Cmax in Sprague-Dawley rat at 1 mg/kg, iv by LC-MS/MS analysis; assay type: ADME, organism-based; set-up: dose 1 mg/kg, route intravenous; conditions: in vivo
[9] = Oral bioavailability in Sprague-Dawley rat at 2 mg/kg by LC-MS/MS analysis; assay type: ADME, organism-based; conditions: in vivo
[10] = Apparent permeability across basolateral to apical side in human Caco2 cells after 2 hrs by LC-MS/MS analysis; assay type: ADME, cell-based; conditions: Caco-2
[11] = Cytotoxicity against BRCA2 deficient Chinese hamster VC8 cells after 3 days by CCK8 or SRB assay; assay type: functional, cell-based; conditions: Cricetulus griseus, V-C8, 72 h
[12] = Apparent permeability across apical to basolateral side in human Caco2 cells after 2 hrs by LC-MS/MS analysis; assay type: ADME, cell-based; conditions: Caco-2
[13] = AUC in Sprague-Dawley rat at 1 mg/kg, iv by LC-MS/MS analysis; assay type: ADME, organism-based; conditions: in vivo
[14] = Protein binding in mouse plasma at 0.5 to 50 uM after 4 hrs by LC-MS/MS analysis; assay type: ADME, cell-free; conditions: read-out: PPB (converted)
[15] = Clearance in Sprague-Dawley rat at 1 mg/kg, iv by LC-MS/MS analysis; assay type: ADME, organism-based; conditions: in vivo
CAPAN-1 [16] = assay: Antiproliferative activity against human Capan1 cells after 7 days by CCK8 or SRB assay; assay type: functional, cell-based; conditions: CAPAN-1, 168 h
V79 = assay: Cytotoxicity against BRCA2 expressing Chinese hamster V79 cells after 3 days by CCK8 or SRB assay; assay type: cell-based; conditions: Cricetulus griseus, V79, 72 h
[17] = Stability in mouse plasma at 1 uM up to 60 mins by LC-MS/MS analysis; assay type: ADME, cell-free; conditions: read-out: Stability
Rattus norvegicus = assay: Half life in Sprague-Dawley rat at 2 mg/kg, po by LC-MS/MS analysis; assay type: ADME, organism-based; conditions: in vivo
[18] = Apparent permeability across apical to basolateral side in human Caco2 cells assessed as drug recovery at 5631.3 pmol after 2 hrs by LC-MS/MS analysis; assay type: ADME, cell-based; conditions: Caco-2, read-out: Drug recovery
Mus musculus [19] = assay: Toxicity in nude BALB/cA mouse xenografted with human Capan1 cells harboring BRCA2 mutant assessed as weight loss at 0.5 mg/kg, po administered once daily for 21 consecutive days measured twice per week; assay type: organism-based; conditions: in vivo
[20] = Volume of distribution in Sprague-Dawley rat at 1 mg/kg, iv by LC-MS/MS analysis; assay type: ADME, organism-based; conditions: in vivo
Mus musculus [21] = assay: Toxicity in nude BALB/cA mouse xenografted with human Capan1 cells harboring BRCA2 mutant assessed as mortality at 0.5 mg/kg, po administered once daily for 21 consecutive days measured twice per week; assay type: organism-based; conditions: in vivo
[22] = Apparent permeability across basolateral to apical side in human Caco2 cells assessed as drug recovery at 18593.3 pmol after 2 hrs by LC-MS/MS analysis; assay type: ADME, cell-based; conditions: Caco-2, read-out: Drug recovery
[23] = Cmax in Sprague-Dawley rat at 2 mg/kg, po by LC-MS/MS analysis; assay type: ADME, organism-based; set-up: dose 2 mg/kg, route oral; conditions: in vivo
[24] = Half life in Sprague-Dawley rat at 20 mg/kg, po by LC-MS/MS analysis; assay type: ADME, organism-based; conditions: in vivo
CAPAN-1 [25] = assay: Cell cycle arrest in human Capan1 cells assessed as accumulation at G0/G1 phase at 0.1 uM after 72 hrs by propidium iodide-staining based flow cytometry (reference value: 63.33%); assay type: functional
MDA-MB-436 [26] = assay: Induction of apoptosis in human MDA-MB-436 cells assessed as late apoptotic cells at 0.1 uM after 96 hrs by Annexin V-FITC/propidium iodide double-staining based flow cytometery (reference value: 5.61%); assay type: functional
[27] = Cmax in Sprague-Dawley rat at 10 mg/kg, iv by LC-MS/MS analysis; assay type: ADME, organism-based; set-up: dose 10 mg/kg, route intravenous; conditions: in vivo
[28] = Cmax in Sprague-Dawley rat at 20 mg/kg, po by LC-MS/MS analysis; assay type: ADME, organism-based; set-up: dose 20 mg/kg, route oral; conditions: in vivo
MDA-MB-436 [29] = assay: Induction of apoptosis in human MDA-MB-436 cells assessed as early apoptotic cells at 0.1 uM after 96 hrs in presence of pancaspase inhibitor Z-VAD-FMK by Annexin V-FITC/propidium iodide double-staining based flow cytometery (reference value: 2.32%); assay type: functional
MDA-MB-436 [30] = assay: Induction of apoptosis in human MDA-MB-436 cells assessed as early apoptotic cells at 0.1 uM after 96 hrs by Annexin V-FITC/propidium iodide double-staining based flow cytometery (reference value: 1.90%); assay type: functional
MDA-MB-436 [31] = assay: Induction of apoptosis in human MDA-MB-436 cells assessed as late apoptotic cells at 0.1 uM after 96 hrs in presence of pancaspase inhibitor Z-VAD-FMK by Annexin V-FITC/propidium iodide double-staining based flow cytometery (reference value: 5.11%); assay type: functional
MDA-MB-436 [32] = assay: Antitumor activity against human MDA-MB-436 cells harboring BRCA1 mutant xenografted in nude BALB/cA mouse assessed as tumor growth inhibition at 100 mg/kg, po administered once daily for 21 consecutive days measured twice per week; assay type: functional; conditions: MDA-MB-436, po, read-out: TGI
[33] = Clearance in Sprague-Dawley rat at 10 mg/kg, iv by LC-MS/MS analysis; assay type: ADME, organism-based; conditions: in vivo
MDA-MB-436 [34] = assay: Induction of apoptosis in human MDA-MB-436 cells assessed as early apoptotic cells at 1 uM after 96 hrs by Annexin V-FITC/propidium iodide double-staining based flow cytometery (reference value: 1.90%); assay type: functional
MDA-MB-436 [35] = assay: Induction of apoptosis in human MDA-MB-436 cells assessed as late apoptotic cells at 1 uM after 96 hrs in presence of pancaspase inhibitor Z-VAD-FMK by Annexin V-FITC/propidium iodide double-staining based flow cytometery (reference value: 5.11%); assay type: functional
[36] = AUC in Sprague-Dawley rat at 20 mg/kg, po by LC-MS/MS analysis; assay type: ADME, organism-based; conditions: in vivo
MDA-MB-436 [37] = assay: Induction of apoptosis in human MDA-MB-436 cells assessed as early apoptotic cells at 1 uM after 96 hrs in presence of pancaspase inhibitor Z-VAD-FMK by Annexin V-FITC/propidium iodide double-staining based flow cytometery (reference value: 2.32%); assay type: functional
CAPAN-1 [38] = assay: Cell cycle arrest in human Capan1 cells assessed as accumulation at G2/M phase at 1 uM after 72 hrs by propidium iodide-staining based flow cytometry (reference value: 15.26%); assay type: functional
CAPAN-1 [39] = assay: Cell cycle arrest in human Capan1 cells assessed as accumulation at S phase at 0.1 uM after 72 hrs by propidium iodide-staining based flow cytometry (reference value: 21.42%); assay type: functional
CAPAN-1 [40] = assay: Cell cycle arrest in human Capan1 cells assessed as accumulation at S phase at 1 uM after 72 hrs by propidium iodide-staining based flow cytometry (reference value: 21.42%); assay type: functional
[41] = Solubility of the compound in water after 24 hrs by HPLC analysis; assay type: physicochemical
[42] = Oral bioavailability in Sprague-Dawley rat at 20 mg/kg by LC-MS/MS analysis; assay type: ADME, organism-based; conditions: in vivo
CAPAN-1 [43] = assay: Cell cycle arrest in human Capan1 cells assessed as accumulation at G2/M phase at 0.1 uM after 72 hrs by propidium iodide-staining based flow cytometry (reference value: 15.26%); assay type: functional
CAPAN-1 [44] = assay: Cell cycle arrest in human Capan1 cells assessed as accumulation at G0/G1 phase at 1 uM after 72 hrs by propidium iodide-staining based flow cytometry (reference value: 63.33%); assay type: functional
[45] = Half life in Sprague-Dawley rat at 10 mg/kg, iv by LC-MS/MS analysis; assay type: ADME, organism-based; conditions: in vivo
MDA-MB-436 [46] = assay: Induction of apoptosis in human MDA-MB-436 cells assessed as caspase-3/7 activation at 0.1 to 1 uM after 72 hrs by Caspase-Glo 3/7 assay; assay type: functional, cell-based
[47] = Volume of distribution in Sprague-Dawley rat at 10 mg/kg, iv by LC-MS/MS analysis; assay type: ADME, organism-based; conditions: in vivo
MDA-MB-436 [48] = assay: Induction of apoptosis in human MDA-MB-436 cells assessed as late apoptotic cells at 1 uM after 96 hrs by Annexin V-FITC/propidium iodide double-staining based flow cytometery (reference value: 5.61%); assay type: functional
[49] = AUC in Sprague-Dawley rat at 10 mg/kg, iv by LC-MS/MS analysis; assay type: ADME, organism-based; conditions: in vivo

Structure (SMILES): N#Cc1cccnc1NCCN(CC(=O)O)C(=O)c1cc(Cc2n[nH]c(=O)c3ccccc23)cc(F)c1F
- Drug uptake [1]: Active
- Retention_time [2]: 6.7 min

Structure (SMILES): N#Cc1cccnc1NCCN(CCO)C(=O)c1cc(Cc2n[nH]c(=O)c3ccccc23)cc(F)c1F
- Drug uptake [1]: Active
- Retention_time [2]: 6.2 min

Structure (SMILES): Cn1ncnc1[C@H]1c2n[nH]c(=O)c3cc(F)cc(c23)N[C@@H]1c1ccc(F)cc1 [TALAZOPARIB]
- half-life [3]: 4.6 h
- AUC [4]: 13200 ng·h/mL
- IC50 (MDA-MB-436 [5]): 0.7 nM
- inhibition in vivo at 0.5 mg/kg (CAPAN-1 [6]): 80%
- half-life at 2 µM [7]: > 1 h
- Cmax [8]: 2060 ng/mL
- bioavailability [9]: 104%
- Papp B→A at 2 h [10]: 51.8 ×10⁻⁶ cm/s
- IC50 [11]: 4.2 nM
- Papp A→B at 2 h [12]: 0.9 ×10⁻⁶ cm/s
- AUC [13]: 6540 ng·h/mL
- fraction unbound at 4 h, up to 50 µM [14]: 0.057
- clearance [15]: 3.33 mL/min/kg
- IC50 (CAPAN-1 [16]): 1.8 nM
- IC50 (V79): 5010 nM
- remaining at 1 h, 1 µM [17]: 106%
- t1/2 (Rattus norvegicus): 3.4 h
- recovery at 2 h [18]: 98.4%
- Activity (Mus musculus [19]): Toxic
- Vd [20]: 1.1 L/kg
- Activity (Mus musculus [21]): Toxic
- recovery at 2 h [22]: 108%
- Cmax [23]: 3100 ng/mL

Structure (SMILES): O=C(c1cc(Cc2n[nH]c(=O)c3ccccc23)ccc1F)N1CCN(C(=O)C2CC2)CC1 [OLAPARIB]
- half-life [24]: 1 h
- Activity (CAPAN-1 [25]): 51.83%
- Activity (MDA-MB-436 [26]): 9.78%
- Cmax [27]: 12300 ng/mL
- IC50 (MDA-MB-436 [5]): 39.3 nM
- Cmax [28]: 2590 ng/mL
- Activity (MDA-MB-436 [29]): 3.3%
- IC50 [11]: 566 nM
- Activity (MDA-MB-436 [30]): 2.5%
- Activity (MDA-MB-436 [31]): 6.52%
- inhibition in vivo at 100 mg/kg (MDA-MB-436 [32]): 65%
- clearance [33]: 30 mL/min/kg
- Activity (MDA-MB-436 [34]): 4.15%
- Activity (MDA-MB-436 [35]): 9.97%
- IC50 (CAPAN-1 [16]): 399 nM
- AUC [36]: 4990 ng·h/mL
- IC50 (V79): 10000 to 54200 nM
- Activity (MDA-MB-436 [37]): 4.79%
- Activity (CAPAN-1 [38]): 51.54%
- Activity (CAPAN-1 [39]): 27.2%
- Activity (CAPAN-1 [40]): 26.14%
- solubility at 24 h [41]: 104 µg/mL (≈ 239 µM)
- bioavailability [42]: 45.4%
- Activity (CAPAN-1 [43]): 20.91%
- Activity (CAPAN-1 [44]): 22.33%
- half-life [45]: 1.1 h
- Activity (MDA-MB-436 [46]): Active
- Vd [47]: 3 L/kg
- Activity (MDA-MB-436 [48]): 17.75%
- AUC [49]: 5500 ng·h/mL
